Source: patent US8623821B2, “Zymogen activators” (Genentech, Inc., priority 2011, dated 2014)
Entries after “also recorded” stand apart in the source; their conditions may differ. Where a SMILES comes first, the peptide text is derived from it. Bridges are numbered along the chain shown (N, C = ends). Where no end group is shown, it is not given here. [ ]: non-standard residue; d: D form.

Assays:
scHGF β D672N mutant = target: T1, scHGF β D672N mutant (Homo sapiens, UniProt P14210, D672N/R494E); experiment: scHGF β activation/Met binding assay with activation-pocket mutant; details: Asp672 to Asn in activation pocket
T1 construct: the scHGF β-chain (residues Asn^479 to Ser^728) contains the R494E mutation; His-tag (C); made in house; host or cells: insect cells (pAcGP67 vector)
Procedure: (§1) Met binding assays were carried out utilizing the OctetRed™ biolayer interferometry instrument (ForteBio, Inc.) as reported previously (Landgraf, K. E. et al. (2010) J Biol Chem 285: 40362-72). Biotinylated Met ECD (Sema/PSI-AviTag) was captured on the surface of streptavidin optical sensor tips (SA biosensors, ForteBio, Inc.), and transferred into buffer containing 0.5 μM scHGF β-chain variants in the presence of increasing concentration of indicated peptides. Association and dissociation reactions were monitored to ensure reversible binding between scHGF β and Met. Binding was quantified using the steady-state levels of surface response from the association reaction. Equilibrium constants were derived by least squares fitting of the titration data to a single-site binding equation. Errors reported are ±stdev of n=3 independent experiments.
However, the partial activity observed with Asp in position 3 was consistent with the fact that the native sequence contains a highly similar Asn residue, but the strained backbone conformation necessary to accommodate the Asp during N-terminal insertion would be energetically unfavorable. […] In addition, the solubility of this peptide variant is enhanced by the polar aspartic acid side chain while maintaining increased activity compared to the IVDG.14 variant.

Met = experiment: Binding of peptide-zHGF β complex to surface immobilized Met ECD (biolayer interferometry); details: read-out: affinity of peptide-zHGF β complex for Met
Procedure: as §1

scHGF β = target: T2, scHGF β (Homo sapiens, UniProt P14210, R494E); experiment: scHGF β activation/Met binding assay (biolayer interferometry); details: for fold more potent than previously described peptides derived from the native HGF β N-terminus: versus Landgraf et al. 2010 peptides
T2 construct: the scHGF β-chain (residues Asn^479 to Ser^728) contains the R494E mutation; His-tag (C); made in house; host or cells: insect cells (pAcGP67 vector)
Procedure: as §1
Based on the finding that the consensus ZAPs contain features consistent with binding and inserting into the activation pocket, several related peptides were synthesized and utilized in a previously established scHGF β activation assay to assess their affinities and ability to active Met binding (Landgraf, K. E. et al. (2010) J Biol Chem 285: 40362-72). Since scHGF β can only weakly interact with the Met Sema-PSI domain compared to the active HGF β form, biolayer interferometry was used in the activation assay to measure the ability of a peptide to directly enhance the binding affinity of scHGF β to a streptavidin sensor surface coated with biotinylated Met (Landgraf, K. E. et al. (2010) J Biol Chem 285: 40362-72). Thus, titration of an activator peptide should result in a significant increase in the surface response signal due to enhanced scHGF β binding to Met.

scHGF [1] = target: T3, scHGF (Homo sapiens, UniProt P14210, R494E); experiment: BxPC-3 cell survival assay, peptide titrations in the presence of scHGF; format: cell-based; parameters: Full-length recombinant HGF proteins were expressed in 1-liter fermentation cultures of Chinese hamster ovary (CHO) cells; made in house; host or cells: CHO cells (scHGF); details: BxPC-3 cells, serum starvation, 72 h, alamar Blue; read-out: EC50 of activation of scHGF, cell survival
Procedure: (§2) BxPC-3 cells were obtained from ATCC and maintained in cell culture medium (RPMI, 10% FBS (Sigma), 50 U/ml penicillin/50 μg/ml streptomycin, 2 mM glutamine). For the survival assay, cells were plated at 10,000 cells/well in 96 well tissue culture plates (Falcon 353072) in 50 μl assay diluent (RPMI, 0.1% BSA (Sigma) 50 U/ml penicillin/50 μg/ml streptomycin, 2 mM glutamine). Cells were allowed to attach for 1-2 h in a 37° C. CO2 incubator. Human HGF proteins (HGF, scHGF or scHGF plus peptide titrations) were pre-incubated at room temperature in assay diluent. HGF/peptide mixtures were added to cells in microtiter plates in triplicate at 50 μl per well and plates were incubated at 37° C. in a CO2 incubator. Final concentrations of HGF variants were 400 ng/ml and peptide concentrations were titrated accordingly. After 72 h, 25 μl alamar Blue (Serotec, BUF012B) was added to each well and incubate an additional 2 h at 37° C. in a CO2 incubator. Plates were agitated vigorously for 10 min at room temperature, and fluorescence was read at 530-590 nm in a fluorescent plate reader.
Using Bx-PC3 cells, peptide titrations in the presence of scHGF were performed and observed robust activation was seen of scHGF signaling through Met, which reached levels equivalent HGF-induced signaling.
(§3) Cellular assays were used to address whether the optimized ZAPtides act as allosteric activators of pro-HGF and stimulate Met signaling in biologically relevant settings of cell survival and migration. […] Importantly, ZAPtides required the presence of scHGF as well as induced […] cell survival that was antagonized by an HGF-blocking anti-Met antibody, each confirming Met pathway selectivity.

[2] = target: zymogen-like pro-MSP β-chain (zMSP β); experiment: Activation of zMSP β binding to RON; details: activation of zMSP β to bind RON
Procedure: The phage approach was also tested against pro-Macrophage Stimulating Protein (pro-MSP), another plasminogen-related growth factor, which, following proteolytic cleavage, signals through the RON receptor, having important roles in inflammation and cancer. Using a new cyclic library based on ZAP.03 (ZAPtide3 Library) and the described selection method a ZAPtide was discovered, ZAP3.2 that was specific for activating the zymogen-like pro-MSP β-chain (zMSP β) to bind RON with an AC50 of 134 μM.

BxPC-3 cells = experiment: BxPC-3 cell survival assay, HGF proteins alone; format: cell-based, human
Procedure: as §2, with “Final concentrations of HGF variants were 400 ng/ml and peptide concentrations were titrated accordingly.” left out

scHGF [3] = target: T3, scHGF; experiment: In vitro wound closure assay, HeLa cell migration in the presence of scHGF; format: cell-based; parameters: Full-length recombinant HGF proteins were expressed in 1-liter fermentation cultures of Chinese hamster ovary (CHO) cells; made in house; host or cells: CHO cells (scHGF); Met is endogenous in HeLa cells; details: HeLa cells, scHGF present, read-out: EC50 of HeLa cell migration response
Excerpt: as §3

Peptide solubility = format: physicochemical
Protein C = target: T4, Protein C (Homo sapiens, UniProt P04070); experiment: Zymogen serine protease activity assay (Ile-Pro-Arg-pNA hydrolysis); format: biochemical; details: 100 nM Protein C, 2 mM Ile-Pro-Arg-pNA, peptide titration
T4 construct: purchased Haematologic Technologies, Inc. (Essex Junction, Vt.)
Procedure: (§4) Zymogen serine proteases prethrombin-2 and Protein C were purchased from Haematologic Technologies, Inc. (Essex Junction, Vt.). Kinetic assays were carried out in 20 mM Hepes, 150 mM NaCl, 5 mM CaCl2, 0.01% Triton X-100, pH 7.2. All reactions contained 100 nM of enzyme plus 2 mM Ile-Pro-Arg-pNA substrate. IVGG.147A was titrated and the initial rates of substrate hydrolysis were measured in clear bottom 96-well plates using 405 nm absorbance on a SpectraMax Plus (Molecular Devices, Inc.).
(§5) The IVGG.14 peptide activator of pro-HGF took advantage of the canonical trypsin-like activation mechanism in order to allosterically activate binding of the serine protease-like domain within pro-HGF to Met. Given this activation mechanism is highly conserved among zymogens of the trypsin-like family of serine proteases and the fact that these proteins share a high degree of structural homology within the serine protease-like domains as well as the activation pockets, ZAPs for pro-HGF were analyzed for ability allosterically activate other zymogen serine proteases.

prethrombin-2 = target: T5, prethrombin-2 (Homo sapiens, UniProt P00734); experiment: as above; format: biochemical; details: 100 nM prethrombin-2, 2 mM Ile-Pro-Arg-pNA, peptide titration
T5 construct: Zymogen serine proteases prethrombin-2 and Protein C were purchased from Haematologic Technologies, Inc; purchased Haematologic Technologies, Inc. (Essex Junction, Vt.)
Procedure: as §4, §5

T2 sequence (P14210 479-728 R494E): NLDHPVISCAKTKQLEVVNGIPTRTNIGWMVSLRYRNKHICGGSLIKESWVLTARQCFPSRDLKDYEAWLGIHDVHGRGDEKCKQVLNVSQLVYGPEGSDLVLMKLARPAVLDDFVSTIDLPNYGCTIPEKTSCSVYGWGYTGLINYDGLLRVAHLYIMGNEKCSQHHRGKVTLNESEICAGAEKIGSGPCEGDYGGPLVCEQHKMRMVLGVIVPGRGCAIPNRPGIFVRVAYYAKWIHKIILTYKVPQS
T2 sequence (P08581 27-515 partner limits assumed): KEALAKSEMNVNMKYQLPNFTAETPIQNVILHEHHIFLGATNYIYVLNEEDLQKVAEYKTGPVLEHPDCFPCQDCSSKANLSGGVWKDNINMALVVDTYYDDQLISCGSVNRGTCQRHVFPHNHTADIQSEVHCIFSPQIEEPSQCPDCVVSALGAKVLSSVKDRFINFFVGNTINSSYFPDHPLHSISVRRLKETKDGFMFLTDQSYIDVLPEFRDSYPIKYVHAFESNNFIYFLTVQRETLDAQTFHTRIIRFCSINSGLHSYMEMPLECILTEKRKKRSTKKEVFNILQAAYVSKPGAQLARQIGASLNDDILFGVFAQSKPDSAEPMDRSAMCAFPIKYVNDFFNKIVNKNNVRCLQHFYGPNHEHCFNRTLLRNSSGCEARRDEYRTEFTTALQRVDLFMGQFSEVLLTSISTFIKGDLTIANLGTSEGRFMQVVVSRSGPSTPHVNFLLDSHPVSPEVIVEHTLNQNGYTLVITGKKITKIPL
T3 sequence (P14210 32-728 R494E): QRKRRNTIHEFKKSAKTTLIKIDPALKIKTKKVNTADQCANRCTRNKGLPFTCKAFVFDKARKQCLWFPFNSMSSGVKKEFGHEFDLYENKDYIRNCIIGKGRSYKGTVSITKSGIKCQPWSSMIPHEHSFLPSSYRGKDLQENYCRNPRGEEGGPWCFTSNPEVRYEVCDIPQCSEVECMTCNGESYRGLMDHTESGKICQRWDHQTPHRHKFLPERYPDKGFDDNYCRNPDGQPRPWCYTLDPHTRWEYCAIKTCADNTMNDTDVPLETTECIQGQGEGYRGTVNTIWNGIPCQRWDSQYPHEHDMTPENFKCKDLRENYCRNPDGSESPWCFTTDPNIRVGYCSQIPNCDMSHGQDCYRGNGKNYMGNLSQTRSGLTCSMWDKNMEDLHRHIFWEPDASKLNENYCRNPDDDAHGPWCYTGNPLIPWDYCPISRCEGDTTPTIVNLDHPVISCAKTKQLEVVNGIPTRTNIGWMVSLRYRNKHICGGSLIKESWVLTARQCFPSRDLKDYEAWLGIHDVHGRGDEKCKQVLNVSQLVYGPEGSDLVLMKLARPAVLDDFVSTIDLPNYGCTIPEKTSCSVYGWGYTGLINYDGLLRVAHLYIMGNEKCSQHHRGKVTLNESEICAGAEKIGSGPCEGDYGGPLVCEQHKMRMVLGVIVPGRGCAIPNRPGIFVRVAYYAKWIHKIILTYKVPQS
T1 sequence (P14210 479-728 R494E/D672N): as the sequence (P14210 479-728 R494E) above, with D194N counted along it
T4 sequence (P04070 19-461 limits assumed): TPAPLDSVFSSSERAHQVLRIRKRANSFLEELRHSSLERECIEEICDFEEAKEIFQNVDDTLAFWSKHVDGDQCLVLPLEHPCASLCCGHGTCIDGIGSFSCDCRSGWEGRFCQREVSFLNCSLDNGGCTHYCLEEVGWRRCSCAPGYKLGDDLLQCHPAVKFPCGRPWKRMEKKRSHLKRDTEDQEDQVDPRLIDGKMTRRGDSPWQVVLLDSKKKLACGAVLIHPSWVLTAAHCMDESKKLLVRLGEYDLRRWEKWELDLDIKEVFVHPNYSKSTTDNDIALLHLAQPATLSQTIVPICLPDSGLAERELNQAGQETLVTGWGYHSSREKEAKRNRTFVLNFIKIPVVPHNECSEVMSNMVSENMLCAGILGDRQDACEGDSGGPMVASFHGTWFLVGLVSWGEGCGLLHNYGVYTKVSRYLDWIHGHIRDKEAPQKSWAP

## CC[C@H](C)[C@H](N)C(=O)N[C@H](C(=O)NCC(=O)NCC(=O)N[C@@H](Cc1ccc(O)cc1)C(=O)N1CCC[C@H]1C(=O)N[C@@H](Cc1c[nH]c2ccccc12)C(=O)N[C@@H](Cc1c[nH]c2ccccc12)C(=O)N[C@@H](CCSC)C(=O)N[C@@H](CC(=O)O)C(=O)N[C@H](C(N)=O)C(C)C)C(C)C [IVGG.14, I V G G Y P W W M D V] (H-IVGGYPWWMDV-NH2)
scHGF β D672N mutant
  activity of peptide with scHGF β D672N: lack of activity; also recorded: completely abolished activity
Met
  Kd: 0.69 µM
scHGF β
  fold improvement of AC50 over previous activators: > 90 fold
  fold more potent than previously described peptides derived from the native HGF β N-terminus: ca. 60 fold
scHGF β; peptide titration with 0.5 μM scHGF β, biotinylated Met ECD on sensor, ±stdev of n=3
  Kd: 34 ± 3 µM
scHGF β; peptide-dependent activation of zHGF β binding to surface immobilized Met ECD, read-out: apparent activation constant (AC50)
  AC50: 21 µM
scHGF [1]
  EC50: ~20 µM

## ZAP3.2: ZAPtide from the cyclic ZAPtide3 Library based on ZAP.03, activating zymogen-like pro-MSP β-chain (zMSP β) to bind RON (IVGGEPVWYVW; not fully specified)
[2]
  AC50: 134 µM

## HGF: proteolytically activated two-chain human hepatocyte growth factor, recombinant
BxPC-3 cells; 200 ng/ml (FIG. 11A)
  stimulation of cell survival by HGF protein alone: potently stimulate cell survival
BxPC-3 cells; 400 ng/ml (FIG. 6A)
  stimulation of cell survival by HGF protein alone: potently stimulate cell survival

## CC[C@H](C)[C@H](N)C(=O)N[C@H](C(=O)NCC(=O)NCC(=O)N[C@H]1CSSC[C@@H](C(=O)N[C@H](C(N)=O)[C@@H](C)CC)NC(=O)[C@H](CCC(=O)O)NC(=O)[C@H](CCC(=O)O)NC(=O)[C@H](CCCNC(=N)N)NC(=O)[C@H](CC(=O)O)NC(=O)[C@H](CCSC)NC(=O)[C@H](Cc2c[nH]c3ccccc23)NC(=O)[C@H](Cc2ccc(O)cc2)NC(=O)[C@@H]2CCCN2C1=O)[C@@H](C)CC [ZAP.03, I I G G C P Y W M D R E E C I] (H-IIGGCPYWMDREECI-NH2; disulfide 5-14)
scHGF [1]
  EC50: 0.4 µM
scHGF [3]
  EC50: 0.06 µM

## CC[C@H](C)[C@H](N)C(=O)N[C@H](C(=O)N[C@H](CC(=O)O)C(=O)NCC(=O)N[C@@H](Cc1ccc(O)cc1)C(=O)N1CCC[C@H]1C(=O)N[C@@H](Cc1c[nH]c2ccccc12)C(=O)N[C@@H](Cc1c[nH]c2ccccc12)C(=O)N[C@@H](CCSC)C(=O)N[C@@H](CC(=O)O)C(=O)N[C@H](C(N)=O)C(C)C)C(C)C [IVdG.14] (H-IV[dD]GYPWWMDV-NH2)
scHGF β
  fold more potent than previously described peptides derived from the native HGF β N-terminus: 100 fold
Peptide solubility
  solubility, in words: enhanced

## CC[C@H](C)[C@H](N)C(=O)N[C@H](C(=O)NCC(=O)NCC(=O)N[C@@H](Cc1ccc(O)cc1)C(=O)N1CCC[C@H]1C(=O)N[C@@H](C)C(=O)N[C@@H](Cc1c[nH]c2ccccc12)C(=O)N[C@@H](CCSC)C(=O)N[C@@H](CC(=O)O)C(=O)N[C@H](C(N)=O)C(C)C)C(C)C [IVGG.147A, I V G G Y P A W M D V] (H-IVGGYPAWMDV-NH2; N-terminus assumed)
Protein C
  initial rate of substrate hydrolysis (Vi): significantly increased
prethrombin-2
  initial rate of substrate hydrolysis (Vi): significantly increased
Peptide solubility
  solubility, in words: exceptionally soluble
